Test results from PMC5024298, “The coiled-coil domain of zebrafish TRPM7 regulates Mg·nucleotide sensitivity” (Scientific Reports, 2016).
Values joined by “and” are separate entries in the source; they are usually repeats but may differ in a detail not shown here. Equal entries are not always repeated. Where two headings read alike, the source gives them in different places.

Legend:
[1] = system: zebrafish TRPM7 (drTRPM7) wild type; test: Whole-cell patch-clamp of tetracycline-induced HEK293 T-REx cells overexpressing wild type drTRPM7; format: cell-based, zebrafish (Danio rerio); conditions: for effect of extracellular divalent application on monovalent outward currents: 10 mM divalent replacing 10 mM Ca^2+, NMDG external solution; for Biophysical characteristic: effect on drTRPM7 (Table 1): heterologous drTRPM7; for IC50: 200 s
Protocol: (§1) HEK293 T-REx cells stably expressing HA-tagged Danio rerio TRPM7 (drTRPM7) wild type or mutants were cultured in DMEM with 10% FBS and 5 μg/ml of blasticidin and 200 μg/ml hygromycin. HEK293 T-REx cells were incubated at 37 °C and 5% CO2. Expression was induced by adding 1 μg/ml tetracycline to the growth media 20 hours before experiments. […] Chicken DT40 wild type and DT40 cells with a TRPM7 […] (DT40 TRPM7-KO) cells were maintained as described before.
(§2) Patch-clamp experiments were performed in the tight-seal whole-cell configuration at room temperature (20–25 °C). Whole-cell currents were recorded with the EPC9 (HEKA, Bellmore, NY) and Patchmaster v2.4 (HEKA). Voltages were corrected for a liquid junction potential of 10 mV. The patch pipettes were pulled from borosilicate glass (Sutter Instruments, USA) with resistances of 2.5–3.5 MΩ when filled with internal solution. The voltage ramp protocol ranged from −100 mV to 100 mV over 50 ms and applied at 0.5 Hz. Current amplitudes were measured at −80 mV and +80 mV. The holding potential was set to 0 mV in all experiments. Currents were filtered at 2.9 kHz and digitized at 10 kHz. Cells were seeded on glass cover slips 1–2 days before the day of the experiment. Cover slips were submerged in the external solution at room temperature (20–25 °C). Cover slips and external solutions were replaced every hour.
The standard external solution contained (in mM): 140 NaCl, 2.8 KCl, 2 MgCl2, 11 glucose, 10 HEPES, and 1 CaCl2. The divalent profile experiments were performed using a modified external solution that contained (in mM): 140 N-methyl-D-glucamine (NMDG), 11 glucose, 10 HEPES and 10 CaCl2. For application, 10 mM CaCl2 was replaced with 10 mM of the respective divalent under study. The standard internal solution contained (in mM): 140 Cs-glutamate, 8 NaCl, 10 HEPES, and 10 Cs-BAPTA. pH was adjusted to 7.2 and osmolarity was kept between 290–330 mOsm. The solutions for pH below 6.0 contained (in mM): 140 NaCl, 2.8 KCl, 2 MgCl2, 11 glucose, 10 MES, and 1 CaCl2. For the Mg·ATP dose-response analysis, the internal solution contained (in mM): 120 Cs-glutamate, 8 NaCl, 10 HEPES, 10 Cs-BAPTA. Na·ATP and MgCl2 was used to achieve appropriate concentrations of free intracellular Mg^2+ and Mg·ATP as calculated using WebmaxC Standard (http://www.stanford.edu/~cpatton/webmaxcS.htm).
Statistical analysis was performed using Fitmaster (version 2.69; HEKA, Germany) and Igor software (version 6.34; WaveMetrics, USA). The p-values were calculated using Microsoft Excel version 14.1.2 using the two-tailed paired Student’s T-test. Data were normalized to cell size and expressed as current density (pA/pF), or normalized to the time point right before application (I/I[time]s). […] Dose-response fits were assessed using the fit function f(x) = ([Maximum current] *(1/(1 + ([Estimated IC50]/x)^[Hill coefficient])). The IC50 or EC50 values calculated with the dose-response curve function were reported with ± standard deviation (S.D.).
To study channel biophysics, HA-tagged wild type zebrafish TRPM7 (drTRPM7) was cloned and stably expressed in HEK293 T-REx cells under tetracycline-inducible promotor (see methods; ref. [3]). […] Both clones were also tested for drTRPM7 expression using the whole-cell patch-clamp technique.

[2] = system: endogenous TRPM7-like currents in ZFL cells; test: Whole-cell patch-clamp of endogenous TRPM7-like currents in zebrafish liver cell line ZFL; format: cell-based
Protocol: as §1, §2

[3] = system: Mammalian TRPM7; conditions: cited from earlier work
[4] = system: Human TRPM6; conditions: cited from earlier work
[5] = system: human TRPM7 (hTRPM7); conditions: cited from earlier work
[6] = system: drTRPM7-1478; test: Whole-cell patch-clamp of HEK293 T-REx cells overexpressing truncation mutant drTRPM7-1478; format: cell-based, zebrafish (Danio rerio); conditions: +80 mV, 200 s; Hill = 2, 1.5 (Fig. 6 legend); read-out: IC50 of internal Mg^2+
Protocol: Patch-clamp experiments were performed in the tight-seal whole-cell configuration at room temperature (20–25 °C). Whole-cell currents were recorded with the EPC9 (HEKA, Bellmore, NY) and Patchmaster v2.4 (HEKA). Voltages were corrected for a liquid junction potential of 10 mV. […] Current amplitudes were measured at −80 mV and +80 mV. […]
(§3) The standard external solution contained (in mM): 140 NaCl, 2.8 KCl, 2 MgCl2, 11 glucose, 10 HEPES, and 1 CaCl2. […] Na·ATP and MgCl2 was used to achieve appropriate concentrations of free intracellular Mg^2+ and Mg·ATP as calculated using WebmaxC Standard (http://www.stanford.edu/~cpatton/webmaxcS.htm).

[7] = system: drTRPM7-1258; test: Whole-cell patch-clamp of HEK293 T-REx cells overexpressing truncation mutant drTRPM7-1258; format: cell-based, zebrafish (Danio rerio)
Protocol: (§4) Patch-clamp experiments were performed in the tight-seal whole-cell configuration at room temperature (20–25 °C). Whole-cell currents were recorded with the EPC9 (HEKA, Bellmore, NY) and Patchmaster v2.4 (HEKA). Voltages were corrected for a liquid junction potential of 10 mV. The patch pipettes were pulled from borosilicate glass (Sutter Instruments, USA) with resistances of 2.5–3.5 MΩ when filled with internal solution. The voltage ramp protocol ranged from −100 mV to 100 mV over 50 ms and applied at 0.5 Hz. Current amplitudes were measured at −80 mV and +80 mV. The holding potential was set to 0 mV in all experiments. Currents were filtered at 2.9 kHz and digitized at 10 kHz. Cells were seeded on glass cover slips 1–2 days before the day of the experiment. […]
as §3

[8] = system: drTRPM7-1178; test: Whole-cell patch-clamp of HEK293 T-REx cells overexpressing truncation mutant drTRPM7-1178; format: cell-based, zebrafish (Danio rerio)
Protocol: as §4, §3

[9] = 1 mM intracellular Mg·ATP, 250 μM free Mg^2+

## [Co+2] [cobalt]
[1]; +80 mV
  effect of extracellular divalent application on monovalent outward currents: almost completely suppressed

## NCCOB(c1ccccc1)c1ccccc1 [2-APB, 2-aminoethyl diphenylborinate, reference compound]
[1]; concentrations of 300 μM and above
  effect of 2-APB on drTRPM7 currents: greatly enhanced
[1]
  Biophysical characteristic: effect on drTRPM7 (Table 1): Potentiation
[1]; lower concentrations (30 μM and 100 μM)
  effect of 2-APB on drTRPM7 currents: small but statistically not significant inhibitory effect
[1]; various concentrations, up to 500 μM, external application
  effect of 2-APB on drTRPM7 currents: facilitated rather than inhibited
[2]; 500 μM 2-APB applied at 400 s
  facilitation of inward and outward drTRPM7-like currents: 50%
[3]; Table 1
  effect of 2-APB on mammalian TRPM7: Inhibition[12]
[4]; Table 1
  effect of 2-APB on human TRPM6: Potentiation[12]
[4]
  effect on human TRPM6 currents: enhances
[5]
  effect of 2-APB on hTRPM7 currents: inhibits

## C=C1CC/C=C(\C)CC[C@@H]2C([C@H](C/C=C(\C)COC(C)=O)OC(C)=O)=CO[C@H](OC(C)=O)[C@@H]12 [Waixenicin A, reference compound]
[1]; 10 μM waixenicin A, 410 μM internal free Mg / 780 μM free Mg^2+ (Fig. 4 legend)
  effect of waixenicin A on drTRPM7 currents: no effect
[1]
  Biophysical characteristic: effect on drTRPM7 (Table 1): No effect
[3]; Table 1
  effect of waixenicin A on mammalian TRPM7: Inhibition[13]
[4]
  effect on human TRPM6 currents: No effect[14]
[4]; listed as waixenicin A
  effect on human TRPM6 currents: no significant effect

## [Ba+2] [barium]
[1]; +80 mV
  effect of extracellular divalent application on monovalent outward currents: facilitated outward currents

## [Sr+2] [strontium]
[1]; +80 mV
  effect of extracellular divalent application on monovalent outward currents: facilitated outward currents

## [Ni+2] [nickel]
[1]; +80 mV
  effect of extracellular divalent application on monovalent outward currents: almost completely suppressed

## [Cd] [cadmium]
[1]; +80 mV
  effect of extracellular divalent application on monovalent outward currents: facilitated outward currents

## [Mg+2] [Mg^2+, magnesium]
[1]; +80 mV
  effect of extracellular divalent application on monovalent outward currents: almost completely suppressed
[1]; current at +80 mV, Hill coefficient 1, read-out: IC50 of intracellular free Mg^2+ on drTRPM7 currents
  IC50: 778 µM
[6]
  IC50: 450 ± 0.55 µM
[7]; +80 mV, 200 s, Hill = 2, read-out: IC50 of internal Mg^2+
  IC50: 250 ± 0.52 µM
[8]; +80 mV, 200 s, Hill = 3, read-out: IC50 of internal Mg^2+
  IC50: 840 ± 158 µM
[2]; 3.2 mM free Mg^2+ in pipette solution
  effect of intracellular free Mg^2+ on drTRPM7-like current development: completely suppressed
[3]; Table 1, read-out: IC50 of Mg^2+ on mammalian TRPM7
  IC50: 720 µM
[3]; read-out: IC50 of intracellular Mg^2+ on heterologous and/or native mouse and human TRPM7
  IC50: ~750 µM
[4]; Table 1, read-out: IC50 of Mg^2+ on human TRPM6
  IC50: 29 µM

## Nc1ncnc2c1ncn2[C@@H]1O[C@H](COP(=O)(O)OP(=O)([O-])OP(=O)([O-])O)[C@@H](O)[C@H]1O.[Mg+2] [Mg·ATP, Mg·adenosine triphosphate]
[1]; internal free Mg^2+ 250 μM, +80 mV, Hill coefficient 1, read-out: IC50 of intracellular Mg·ATP on drTRPM7 currents
  IC50: 1160 µM and 1200 µM
[1]; internal free Mg^2+ 250 μM, +80 mV, Hill coefficient set to 1, read-out: IC50 of intracellular Mg·ATP on drTRPM7 currents (Fig. 1E legend)
  IC50: 1160 ± 700 µM
[7]; [9]
  effect of Mg·ATP on drTRPM7-1258 currents: fully inhibited
[7]; ratio of IC50 values
  sensitivity to intracellular Mg·ATP of drTRPM7-1258 compared to drTRPM7-1478 and wild type: about 4 fold
[8]; [9]
  effect of Mg·ATP on drTRPM7-1178 currents: did not seem to have any effect
[8]; up to 6 mM Mg·ATP, 250 μM free Mg^2+
  sensitivity of drTRPM7-1178 currents to intracellular Mg·ATP: completely lost any sensitivity
[3]; Table 1, read-out: IC50 of Mg·ATP on mammalian TRPM7
  IC50: 2000 µM
[4]
  effect on human TRPM6 currents: No effect[14]
